Measurements published in patent US6670373B1, “Compounds and method for inhibiting MRP1” (Eli Lilly and Company, priority 1999, dated 2003).

Tests used:
MRP1 = target: T1, MRP1 (Homo sapiens, UniProt P33527); experiment: Reversal of MRP1-mediated doxorubicin resistance in HL60/Adr cells (alamarBlue cell growth); assay type: cell-based; details: oncolytic alone at the tested concentration
T1 construct: HL60/Adr and HL60/Vinc are continuous cell lines, which were selected for doxorubicin and vincristine resistance respectively; endogenous in cells; host or cells: HL60/Adr (doxorubicin-selected variant of human HL60)
T1 sequence (P33527 whole entry): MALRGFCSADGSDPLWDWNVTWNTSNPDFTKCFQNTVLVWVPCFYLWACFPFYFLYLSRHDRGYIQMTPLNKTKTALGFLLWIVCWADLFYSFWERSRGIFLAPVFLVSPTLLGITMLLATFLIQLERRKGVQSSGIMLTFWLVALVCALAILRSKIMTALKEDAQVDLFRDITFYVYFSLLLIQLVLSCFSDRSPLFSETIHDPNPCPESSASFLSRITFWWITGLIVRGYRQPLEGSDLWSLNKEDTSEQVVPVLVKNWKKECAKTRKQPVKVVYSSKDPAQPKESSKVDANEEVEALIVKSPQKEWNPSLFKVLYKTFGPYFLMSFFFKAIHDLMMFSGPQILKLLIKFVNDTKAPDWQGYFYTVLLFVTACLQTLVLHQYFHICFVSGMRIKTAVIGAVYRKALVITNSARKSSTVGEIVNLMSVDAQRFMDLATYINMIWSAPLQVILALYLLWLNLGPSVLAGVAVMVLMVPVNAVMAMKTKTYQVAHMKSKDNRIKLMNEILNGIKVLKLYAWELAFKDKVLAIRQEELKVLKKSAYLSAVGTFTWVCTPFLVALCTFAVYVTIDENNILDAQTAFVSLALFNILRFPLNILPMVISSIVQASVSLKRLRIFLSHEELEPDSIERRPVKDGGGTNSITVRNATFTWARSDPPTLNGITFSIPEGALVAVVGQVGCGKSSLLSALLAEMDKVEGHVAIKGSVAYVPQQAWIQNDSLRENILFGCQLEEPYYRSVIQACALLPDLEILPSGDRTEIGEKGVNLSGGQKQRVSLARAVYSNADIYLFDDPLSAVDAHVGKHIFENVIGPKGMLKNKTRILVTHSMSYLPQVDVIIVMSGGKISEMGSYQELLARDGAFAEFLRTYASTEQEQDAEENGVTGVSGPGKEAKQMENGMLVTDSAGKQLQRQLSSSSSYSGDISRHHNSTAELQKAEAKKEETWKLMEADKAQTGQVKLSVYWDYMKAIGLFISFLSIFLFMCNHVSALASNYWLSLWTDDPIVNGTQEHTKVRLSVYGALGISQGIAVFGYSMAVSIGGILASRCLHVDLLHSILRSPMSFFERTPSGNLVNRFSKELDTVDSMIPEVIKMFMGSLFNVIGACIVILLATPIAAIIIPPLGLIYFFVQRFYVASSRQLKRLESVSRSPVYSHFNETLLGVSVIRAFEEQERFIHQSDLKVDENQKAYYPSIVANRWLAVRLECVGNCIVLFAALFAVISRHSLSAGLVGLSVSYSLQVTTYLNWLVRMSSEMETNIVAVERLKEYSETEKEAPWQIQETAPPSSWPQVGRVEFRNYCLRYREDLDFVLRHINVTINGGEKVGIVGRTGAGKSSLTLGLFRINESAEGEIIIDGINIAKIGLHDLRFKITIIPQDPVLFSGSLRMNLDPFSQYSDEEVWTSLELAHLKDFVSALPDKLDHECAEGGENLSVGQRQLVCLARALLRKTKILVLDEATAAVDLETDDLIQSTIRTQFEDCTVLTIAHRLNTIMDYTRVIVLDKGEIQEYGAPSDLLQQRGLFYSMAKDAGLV
Description: (§1) The biological activity of the compounds of the present invention was evaluated employing an initial screening assay which rapidly and accurately measured the activity of the tested compound in inhibiting MRP1 or MDR1. Assays useful for evaluating this reversing capability are well known in the art. See, e.g., T. McGrath, et al., Biochemical Pharmacology, 38:3611, 1989; D. Marquardt and M. S. Center, Cancer Research, 52:3157, 1992; D. Marquardt, et al., Cancer Research, 50:1426, 1990; and Cole, et. al., Cancer Research, 54: 5902-5910, 1994.
(§2) Assay for Reversal of MRP1-Mediated Doxorubicin Resistance and MDR1-Mediated Vincristine Resistance: HL60/Adr and HL60/Vinc are continuous cell lines, which were selected for doxorubicin and vincristine resistance respectively by culturing HL60, a human acute myeloblastic leukemia cell line, in increasing concentrations of doxorubicin or vincristine until a highly resistant variant was attained.
(§3) HL60/Adr and HL60/Vinc cells were grown in RPMI 1640 (Gibco) containing 10% fetal bovine serum (FBS) and 50 μg/ml GENTAMICIN™ (Sigma). Cells were harvested; washed twice with assay medium (same as culture media); counted; and diluted to 1×10^5 cells/ml in assay medium. One hundred microliters of cells were aliquoted into wells of a 96 well tissue culture plate. […]

MDR1 = target: T2, MDR1 (Homo sapiens, UniProt P08183); experiment: Reversal of MDR1-mediated vincristine resistance in HL60/Vinc cells (alamarBlue cell growth); assay type: cell-based; details: oncolytic alone at the tested concentration
T2 construct: HL60/Adr and HL60/Vinc are continuous cell lines, which were selected for doxorubicin and vincristine resistance respectively; endogenous in cells; host or cells: HL60/Vinc (vincristine-selected variant of human HL60)
T2 sequence (P08183 whole entry): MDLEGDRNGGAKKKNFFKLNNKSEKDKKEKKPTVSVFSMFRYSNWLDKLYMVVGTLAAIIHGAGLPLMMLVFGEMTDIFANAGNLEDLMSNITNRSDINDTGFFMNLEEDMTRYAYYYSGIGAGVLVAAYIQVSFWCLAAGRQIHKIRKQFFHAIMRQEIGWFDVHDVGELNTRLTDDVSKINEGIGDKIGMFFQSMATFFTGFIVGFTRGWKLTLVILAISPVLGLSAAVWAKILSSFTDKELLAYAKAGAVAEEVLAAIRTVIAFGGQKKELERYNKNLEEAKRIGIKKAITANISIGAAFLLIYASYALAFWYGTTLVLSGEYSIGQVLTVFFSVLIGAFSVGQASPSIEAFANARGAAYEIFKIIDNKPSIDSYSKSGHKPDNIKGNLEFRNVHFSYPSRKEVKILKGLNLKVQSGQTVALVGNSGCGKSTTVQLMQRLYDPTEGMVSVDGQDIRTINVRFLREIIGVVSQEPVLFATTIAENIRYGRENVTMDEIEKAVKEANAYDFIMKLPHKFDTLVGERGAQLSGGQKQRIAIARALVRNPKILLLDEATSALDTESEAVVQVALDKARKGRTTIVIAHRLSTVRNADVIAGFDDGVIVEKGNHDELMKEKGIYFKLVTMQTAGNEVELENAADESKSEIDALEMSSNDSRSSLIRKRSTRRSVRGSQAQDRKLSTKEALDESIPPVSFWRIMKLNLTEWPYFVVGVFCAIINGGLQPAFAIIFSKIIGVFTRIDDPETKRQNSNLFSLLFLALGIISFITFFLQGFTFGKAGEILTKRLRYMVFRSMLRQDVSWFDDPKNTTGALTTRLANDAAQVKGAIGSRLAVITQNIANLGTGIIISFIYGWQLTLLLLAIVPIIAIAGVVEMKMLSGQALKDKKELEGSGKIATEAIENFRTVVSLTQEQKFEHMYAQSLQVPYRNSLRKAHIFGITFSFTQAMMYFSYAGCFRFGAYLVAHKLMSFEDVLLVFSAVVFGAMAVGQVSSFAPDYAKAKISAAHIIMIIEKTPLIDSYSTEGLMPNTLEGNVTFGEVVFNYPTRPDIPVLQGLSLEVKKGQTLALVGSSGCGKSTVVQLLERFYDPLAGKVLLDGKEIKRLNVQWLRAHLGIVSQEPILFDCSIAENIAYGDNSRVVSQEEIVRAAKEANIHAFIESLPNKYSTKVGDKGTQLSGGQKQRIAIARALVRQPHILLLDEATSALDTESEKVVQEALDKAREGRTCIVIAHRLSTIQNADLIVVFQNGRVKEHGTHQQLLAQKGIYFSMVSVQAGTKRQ
Description: as §1, §2, §3

COc1cccc2c1C(=O)c1c(O)c3c(c(O)c1C2=O)C[C@@](O)(C(=O)CO)C[C@@H]3O[C@H]1C[C@H](N)[C@H](O)[C@H](C)O1 [doxorubicin]
inhibition of cell growth by the oncolytic alone (MRP1): minimally inhibits | inhibition of cell growth by the oncolytic alone (MDR1): minimally inhibits
